Experimental data reported in US20230146455A1, “TREATMENT OF INFLAMMATORY DISEASES WITH PEPTIDES AND PHARMACEUTICAL COMPOSITIONS” (Yuyu Pharma, Inc., priority 2020, published 2023).
Values joined by “and” are separate entries in the source; they are usually repeats but may differ in a detail not shown here. Equal entries are not always repeated. Where a SMILES comes first, the peptide text is derived from it. [ ]: non-standard residue; d: D form. Hyp = O=C(O)[C@@H]1C[C@@H](O)CN1

Tested on: IL-6
Test: Example 9 Luminex, LPS hPBMCs: IL-6
Assay type: cell-based, human
Settings: Bead IL-6, PBMC + LPS(5 ug/ml)
Description: Treatment Human PBMCs were pretreated with YY-101, YDE-011 and YDE-043 or reference compound; Xiidra® at various concentration (ranging from 1 nM to 100 uM) for 2 h before stimulation. An equal volume of 0.5% DMSO was used as a vehicle control. Then, the cells were treated with LPS at 5 ug/ml. The supernatants from treated cells were harvested at 24 h and placed in a 96 well for Luminex cytokine & chemokine profiling using a Luminex 200 multiplex assay (Luminex; R&D system, USA).
The main study arm with triplicate wells per group in a 24-well plate: • 1. Blank • 2. PBMC: 0.5% DMSO • 3. PBMC+LPS (5 ug/ml) • 4. PBMC+YY-101 100 uM • 5. PBMC+YY-101 10 uM • 6. PBMC+YY-101 1 uM • 7. PBMC+YY-101 0.1 uM • 8. PBMC+YY-101 0.01 uM • 9. PBMC+LPS (5 ug/ml)+Xiidra®100 uM • 10. PBMC+LPS (5 ug/ml)+Xiidra® 10 uM • 11. PBMC+LPS (5 ug/ml)+Xiidra® 1 uM • 12. PBMC+LPS (5 ug/ml)+Xiidra®0.1 uM • 13. PBMC+LPS (5 ug/ml)+Xiidra®0.01 uM • 14. PBMC+LPS (5 ug/ml)+Xiidra®0.001 uM • 15. PBMC+LPS (5 ug/ml)+YY-101 100 uM • 16. PBMC+LPS (5 ug/ml)+YY-101 10 uM • 17. PBMC+LPS (5 ug/ml)+YY-101 1 uM • 18. PBMC+LPS (5 ug/ml)+YY-101 0.1 uM • 19. PBMC+LPS (5 ug/ml)+YY-101 0.01 uM • 20. PBMC+LPS (5 ug/ml)+YY-101 0.001 uM • 21. PBMC+LPS (5 ug/ml)+YDE-011 100 uM • 22. PBMC+LPS (5 ug/ml)+YDE-011 10 uM • 23. PBMC+LPS (5 ug/ml)+YDE-011 1 uM • 24. PBMC+LPS (5 ug/ml)+YDE-011 0.1 uM • 25. PBMC+LPS (5 ug/ml)+YDE-011 0.01 uM • 26. PBMC+LPS (5 ug/ml)+YDE-011 0.001 uM • 27. PBMC+LPS (5 ug/ml)+YDE-043 100 uM • 28. PBMC+LPS (5 ug/ml)+YDE-043 10 uM • 29. PBMC+LPS (5 ug/ml)+YDE-043 1 uM • 30. PBMC+LPS (5 ug/ml)+YDE-043 0.1 uM • 31. PBMC+LPS (5 ug/ml)+YDE-043 0.01 uM • 32. PBMC+LPS (5 ug/ml)+YDE-043 0.001 uM
Multiplex assay was used to measure 30 cytokines and chemokines. The 1:2, 1:10 and 1:200 diluted cell supernatant and serial dilution of the standard were dispensed into a 96 well plate at 50 ul/well. Then, the pre-mixed cocktail of antibody-coated magnetic beads was dispensed at 50 ul/well and incubated at room temperature for 2 h in a horizontal orbital microplate shaker at 800±500 rpm. The beads were washed using a magnetic device to prevent loss. The biotin-antibody was dispensed in 50 ul of each well and incubated at room temperature for 1 h in a shaker at 800±500 rpm. After washing, streptavidin-PE was added at 50 ul/well and incubated at room temperature for 30 min in a shaker under the same conditions. Finally, after washing, wash buffer (100 ul/well) was added to the plate and incubated in a shaker for 2 min. The Luminex™ 200 setting were set according to the manufacturer's protocol. The data was calculated with a standard five-parameter logistic nonlinear regression analysis of the data (xPonent software 4.2, USA). The levels of cytokine/chemokine are normalized to the live cell counts (1×10^5 cells/mL) and presented as concentrations per mL (pg/mL or ng/mL).

CC(C)C[C@H](NC(=O)CNC(=O)[C@H](CC(C)C)NC(=O)[C@H](CCC(N)=O)NC(=O)CNC(=O)[C@@H]1C[C@@H](O)CN1)C(=O)N[C@@H](C)C(=O)NCC(=O)N1CCC[C@H]1C(=O)N[C@@H](CCCCN)C(=O)O [YDE-011] (H-[Hyp]GQLGLAGPK-OH)
Concentration (0.001 uM, Mean): 6729.3 pg/mL
MFI (0.001 uM, Mean): 186.6
conc/live cell (0.001 uM, Mean): 1268.0 pg/10^5
Concentration (0.001 uM, single replicates): 6493.4 pg/mL and 6683.4 pg/mL and 7011.0 pg/mL
MFI (0.001 uM, single replicates): 179.8 and 185.3 and 194.8
conc/live cell (0.001 uM, single replicates): 1443.0 pg/10^5 and 1152.3 pg/10^5 and 1208.8 pg/10^5
Concentration (0.01 uM, Mean): 7097.0 pg/mL
MFI (0.01 uM, Mean): 197.3
conc/live cell (0.01 uM, Mean): 1218.8 pg/10^5
Concentration (0.01 uM, single replicates): 7131.5 pg/mL and 6924.8 pg/mL and 7234.7 pg/mL
MFI (0.01 uM, single replicates): 198.3 and 192.3 and 201.3
conc/live cell (0.01 uM, single replicates): 1150.2 pg/10^5 and 1357.8 pg/10^5 and 1148.4 pg/10^5
Concentration (0.1 uM, Mean): 6700.6 pg/mL
MFI (0.1 uM, Mean): 185.8
conc/live cell (0.1 uM, Mean): 1180.6 pg/10^5
Concentration (0.1 uM, single replicates): 6458.9 pg/mL and 6907.6 pg/mL and 6735.2 pg/mL
MFI (0.1 uM, single replicates): 178.8 and 191.8 and 186.8
conc/live cell (0.1 uM, single replicates): 978.6 pg/10^5 and 1381.5 pg/10^5 and 1181.6 pg/10^5
Concentration (1 uM, Mean): 6838.4 pg/mL
MFI (1 uM, Mean): 189.8
conc/live cell (1 uM, Mean): 1364.4 pg/10^5
Concentration (1 uM, single replicates): 6821.4 pg/mL and 7217.5 pg/mL and 6476.2 pg/mL
MFI (1 uM, single replicates): 189.3 and 200.8 and 179.3
conc/live cell (1 uM, single replicates): 1240.3 pg/10^5 and 1503.6 pg/10^5 and 1349.2 pg/10^5
Concentration (10 uM, Mean): 6769.7 pg/mL
MFI (10 uM, Mean): 187.8
conc/live cell (10 uM, Mean): 1286.9 pg/10^5
Concentration (10 uM, single replicates): 6890.4 pg/mL and 6700.7 pg/mL and 6717.9 pg/mL
MFI (10 uM, single replicates): 191.3 and 185.8 and 186.3
conc/live cell (10 uM, single replicates): 1276.0 pg/10^5 and 1155.3 pg/10^5 and 1429.3 pg/10^5
Concentration (100 uM, Mean): 7572.5 pg/mL
MFI (100 uM, Mean): 211.1
conc/live cell (100 uM, Mean): 1247.9 pg/10^5
Concentration (100 uM, single replicates): 7801.4 pg/mL and 7715.7 pg/mL and 7200.3 pg/mL
MFI (100 uM, single replicates): 217.8 and 215.3 and 200.3
conc/live cell (100 uM, single replicates): 1278.9 pg/10^5 and 1264.9 pg/10^5 and 1200.1 pg/10^5
